The structures appear in SMILES notation. “Also recorded” adds a separate entry of the source.

The subject of one data set is K562. The experiment in a line: Cell proliferative assay (MTT), K562. Type of data set: cell-based. To be noted: Homo sapiens, 72 h incubation, read-out: IC50s K562. Summed up: (§1)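 Seed cells, incubate 24 h, add compounds at various doses, incubate 72 h, add MTT, measure absorbance at 590 nm. IC50 from dose-response curves, mean±SEM of ≥3 experiments.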
Data set [1] has as its system B16F10 cells. The data set is described as follows: Malignant melanoma B16 tumor xenograft study. It counts as in vivo, C57 mice. As to conditions: 5, 10 and 15 mg/kg intravenous once every other day for seven times; vs control P<0.01. The protocol: In Vivo Antitumor Activity (1) In Malignant Melanoma B16 Tumor Xenograft Study of Millepachine
Six-week-old female mice were obtained from Chinese Academy of Medical Science (Beijing, China). B16F10 cells (5×10^5 in 100 μl saline) were injected subcutaneously into the right flanks of C57 mice. When the tumor reached about 100 mm^3, mice were selected and randomly divided into four groups including control and three compounds-treated groups. The animals were intravenous injection with Millepachine (5, 10 and 15 mg/kg) or vehicle once every other day for seven times. Tumor burden was measured every 2 or 3 days with a caliper (calculated volume [mm^3]=π/6×length×width×width). After treatment, mice were killed tumors were collected and weighted.

The test system of the next data set is HT29. The experiment in a line: Cell proliferative assay (MTT), HT29. Type of data set: cell-based. As to conditions: Homo sapiens, HT-29, 72 h incubation, read-out: IC50s HT29. In a few lines: as §1
The test system of another data set is tumor cells. The data set is described as follows: Cell proliferative assay (MTT), summary over tumor cells. Type of data set: cell-based. As to conditions: summary in words of Table 1, colon, liver, leukemia lines. The method, then:
The synthesized compounds were evaluated for their cytotoxin activity against suspended tumor cells. These cells were seeded on 96-well plates and incubated for 24 h. Selected compounds were added at various doses and incubated for 72 h, MTT was then added, and the absorbance was measured at a wavelength of 590 nm. IC50 values are expressed as the mean±SEM from the dose-response curves of at least three independent experiments.

Data set [2] relates to several cancer cell lines. To be noted: background statement; cited from earlier work.
The test system of another data set is HeLa-C3 cells. To be noted: background statement; cited from earlier work.
In another data set the test system is SW620. The experiment in a line: Cell proliferative assay (MTT), SW620. Type of data set: cell-based. As to conditions: Homo sapiens, SW-620, 72 h incubation, read-out: IC50s SW620. Summed up: as §1
For a further data set, the system named is HCT116. The experiment in a line: Cell proliferative assay (MTT), HCT116. It counts as cell-based. As to conditions: Homo sapiens, HCT-116, 72 h incubation, read-out: IC50s HCT116. Summed up:
as §1

The test system of the next data set is HepG2. The data set is described as follows: Cell proliferative assay (MTT), HepG2. It counts as cell-based. As to conditions: Homo sapiens, 72 h incubation, read-out: IC50s HepG2. In a few lines:
as §1

Data set [3] relates to B16F10 cells. The experiment in a line: Malignant melanoma B16-induced lung metastasis. Type of data set: in vivo, C57 mice. As to conditions: 7.5 and 15 mg/kg intravenous once every other day for seven times. The protocol:
(2) The Effect of Millepachine on the Malignant Melanoma B16-Induced Lung Metastasis
Six-week-old female mice were obtained from Chinese Academy of Medical Science (Beijing, China). B16F10 cells (5×10^5 in 100 μl saline) were injected intravenous into the caudal vein of C57 mice. The animals were intravenous injection with Millepachine (7.5 and 15 mg/kg) or vehicle once every other day for seven times after incubation of cell. After stop treatment for 20 days, mice were killed and lung metastasis was observed.

A further data set has as its system SPC-A1 cells. The data set is described as follows: Human lung cancer SPC-A1 xenograft. To be noted: 10, 20 mg/kg intravenous every three days for eight times; vs vehicle control. Type of data set: in vivo, Balb/c nude mice. The method, then:
(4) In Vivo Anti-Tumor Activity of SKLBC-9 on Human Lung Cancer SPC-A1 Xenograft
Six-week-old Balb/c nude mice were obtained from Chinese Academy of Medical Science (Beijing, China). SPC-A1 cells (5×10^6 in 100 μl saline) were injected subcutaneously into the right flanks of the mice. 14 days after cell injection, forty mice were selected and randomly divided into four groups including control, cisplatin (1.5 mg/kg) and SKLBC-9 (10, 20 mg/kg). The animals were intravenously injected with SKLBC-9 or vehicle every three days for eight times. Tumor burden and animal body weight was measured every 2 or 3 days. The survival rate was also recorded. After treatment, mice were killed and tumors were collected and weighted.
On the technique in general: In xenograft studies the graft and the host belong to different species.

Another data set concerns A549 cells. The data set is described as follows: Human lung cancer A549 xenograft. As to conditions: 5, 10 and 20 mg/kg intravenous once three days for eight times; vs control P<0.01. It counts as in vivo, Balbc mice. The protocol:
(3) In Vivo Anti-Tumor Activity of SKLBC-9 on Human Lung Cancer A549 Xenograft
Six-week-old female mice were obtained from Chinese Academy of Medical Science (Beijing, China). A549 cells (5×10^6 in 100 μl saline) were injected subcutaneously into the right flanks of Balbc mice. When the tumor reached about 100 mm^3, mice were selected and randomly divided into five groups including control, cisplatin (1.5 mg/kg) and SKLBC-9 (5,10,20 mg/kg). The animals were intravenous injection with SKLBC-9 (5, 10 and 20 mg/kg) or vehicle once three days for eight times. Tumor burden was measured every 2 or 3 days with a caliper (calculated volume [mm^3]=n/6× length×width×width). After treatment, mice were killed and tumors were collected and weighted.

Another data set has as its system A375. The experiment in a line: Cell proliferative assay (MTT), A375. It counts as cell-based. To be noted: Homo sapiens, A-375, 72 h incubation, read-out: IC50s A375. Summed up: as §1
A further data set concerns LO2. The data set is described as follows: Cell proliferative assay (MTT), LO2. It counts as cell-based. To be noted: Homo sapiens, L02, 72 h incubation, read-out: IC50s LO2. Summed up: as §1
In the next data set the test system is SMMC-7221. The data set is described as follows: Cell proliferative assay (MTT), SMMC-7221. It counts as cell-based. To be noted: 72 h incubation, read-out: IC50s SMMC-7221. In a few lines: as §1
Another data set concerns A549. The data set is described as follows: Cell proliferative assay (MTT), A549. To be noted: Homo sapiens, 72 h incubation, read-out: IC50s A549. It counts as cell-based. Summed up:
as §1

For data set [4], the system named is HepG2 cells. The data set is described as follows: Human hepatocarcinoma HepG2 xenograft (SKLBC-45 study). Type of data set: in vivo, Balb/c nude mice. As to conditions: 2.5, 5, 10, 20 mg/kg intravenous every three days for eight times; vs vehicle control. The method, then: (5) In Vivo Anti-Tumor Activity of SKLBC-45 on Human Hepatocarcinoma HepG2 Xenograft
Six-week-old Balb/c nude mice were obtained from Chinese Academy of Medical Science (Beijing, China). HepG2 cells (10^7 in 100 μl saline) were injected subcutaneously into the right flanks of the mice. 14 days after cell injection, seventy mice were selected and randomly divided into seven groups including saline control, vehicle control, four doses of SKLBC-45 (2.5, 5, 10, 20 mg/kg) and positive control Adriamycin (5 mg/kg). The animals were intravenously injected with saline, SKLBC-45, adriamycin or vehicle every three days for eight times. Tumor burden and animal body weight was measured every 2 or 3 days. The survival rate was also recorded. After treatment, mice were killed and tumors were collected and weighted.

The test system of data set [5] is HepG2 cells. The data set is described as follows: Human hepatocarcinoma HepG2 xenograft (SKLBC-76 study). Type of data set: in vivo, Balb/c nude mice. To be noted: 2.5, 5, 10 mg/kg intravenous every three days for eight times; vs control. The method, then:
(6) In Vivo Anti-Tumor Activity of SKLBC-76 on Human Hepatocarcinoma HepG2 Xenograft
Six-week-old Balb/c nude mice were obtained from Chinese Academy of Medical Science (Beijing, China). HepG2 cells (10^7 in 100 μl saline) were injected subcutaneously into the right flanks of the mice. 14 days after cell injection, fifty mice were selected and randomly divided into five groups including control, three doses of SKLBC-76 (2.5, 5, 10 mg/kg) and positive control taxol (5 mg/kg). The animals were intravenously injected with SKLBC-76 or taxol every three days for eight times. Tumor burden and animal body weight was measured every 2 or 3 days. The survival rate was also recorded. After treatment, mice were killed and tumors were collected and weighted.

The subject of data set [6] is C26 cells. The data set is described as follows: C26-tumor bearing mice model (SKLBC-83 study). To be noted: 10 mg/kg intravenous every two days for eight times; vs control. It counts as in vivo, Balb/c mice. The method, then:
(7) In Vivo Anti-Tumor Activity of SKLBC-83 on C26-Tumor Bearing Mice Model.
Six-week-old Balb/c mice were obtained from Chinese Academy of Medical Science (Beijing, China). C26 cells (3×10^6 in 100 μl saline) were injected subcutaneously into the right flanks of the mice. 10 days after cell injection, thirty mice were selected and randomly divided into three groups including saline control, SKLBC-83 (10 mg/kg) and positive control taxol (5 mg/kg). The animals were intravenously injected with […] or taxol every two days for eight times. Tumor burden and animal body weight was measured every 2 or 3 days. The survival rate was also recorded. After treatment, mice were killed and tumors were collected and weighted.

Data set [7] has as its system C26 cells. The experiment in a line: C26-tumor bearing mice model (seven-compound study). To be noted: 10 mg/kg intravenous every two days for eight times; vs control. Type of data set: in vivo, Balb/c mice. The method, then: (8) In Vivo Anti-Tumor Activity of SKLBC-45, SKLBC-68, SKLBC-74, SKLBC-75, SKLBC-76, SKLBC-79, SKLBC-80 on C26-Tumor Bearing Mice Model.
Six-week-old Balb/c mice were obtained from Chinese Academy of Medical Science (Beijing, China). C26 cells (3×10^6 in 100 μl saline) were injected subcutaneously into the right flanks of the mice. 10 days after cell injection, when the average tumor volume reached ˜60 mm^3. Fifty-four mice were selected and randomly divided into nine groups including saline control, seven compounds and positive control taxol (5 mg/kg). The treatment started one day later. The animals were intravenously injected with SKLBC-45, SKLBC-68, SKLBC-74, SKLBC-75, SKLBC-76, SKLBC-79, SKLBC-80 (all 10 mg/kg) or taxol every two days for eight times. Tumor burden and animal body weight was measured every 2 or 3 days. The survival rate was also recorded. After treatment, mice were killed and tumors were collected and weighted. The results were shown in FIGS. 15, 16, 17, 18, 19, 20 and 21.

`COc1ccc(/C=C/C(=O)c2ccc(OC)c3c2OC(C)(C)C=C3)cc1` [Millepachine, (E)-1-(5-methoxy-2,2-dimethyl-2H-chromen-8-yl)-3-(4-methoxyphenyl)prop-2-en-1-one]: the IC50 amounted to 4560 nM with K562; 3290 nM in the data set with HT29; 760 nM in the data set with SW620; 4660 nM in the data set with HCT116; 2610 nM in the data set with HepG2. Also, the “survivor time of tumor-bearing mice” value with B16F10 cells [1] was “prolong the survivor time”. Also, the tumor growth result in the data set with B16F10 cells [1] is “suppress tumor growth”. Besides, the “inhibitory activity against tumor cells” value was “better inhibitory activity” with tumor cells and “best inhibitory activity” in the data set with tumor cells (listed as SKLBC-1). Further, the “cytotoxic effects against cancer cells” value in data set [2] was “significant cytotoxic and apoptotic effects”. Also, the “apoptotic effects against cancer cells” value in the data set with HeLa-C3 cells is “significant cytotoxic and apoptotic effects”. In addition, the lung metastasis result in the data set with B16F10 cells [3] is “dose-dependently inhibited; also recorded: significantly inhibited”.
For the molecule `COc1ccc(C(=O)/C=C/c2ccc(N(C)C)cc2)c2c1C=CC(C)(C)O2` [SKLBC-9, (E)-3-(4-(dimethylamino)phenyl)-1-(5-methoxy-2,2-dimethyl-2H-chromen-8-yl)prop-2-en-1-one], the average tumor weight result with SPC-A1 cells was “significantly lower”. Also, in the data set with SPC-A1 cells, the growth of tumor result is listed as “significantly inhibited”. Also, the IC50 in the data set on K562 was 3500 nM; with HT29 it was 1870 nM; in the data set on SW620, 570 nM; with HCT116 it was 1630 nM; in the data set on HepG2, 730 nM. In addition, the “inhibitory activity against tumor cells” value in the data set with tumor cells is recorded as “better inhibitory activity”. For the same molecule, the tumor growth result in the data set on A549 cells was “suppress tumor growth”.
As for `CCC(=O)Oc1ccc(C(=O)/C=C/c2ccc(N(CC)CC)cc2)c2c1C=CC(C)(C)O2` [SKLBC-45, (E)-8-(3-(4-(diethylamino)phenyl)acryloyl)-2,2-dimethyl-2H-chromen-5-yl propionate], the IC50 was determined as 522 nM in the data set with K562; 620 nM with A375; 20000 nM in the data set on LO2; 610 nM in the data set with SMMC-7221; 360 nM with A549; 148 nM in the data set with HepG2. Moreover, the “inhibitory activity against tumor cells” value in the data set on tumor cells is given as “better inhibitory activity; also recorded: best inhibitory activity”. Besides, the average tumor weight entry in the data set on HepG2 cells [4] is reported as “significantly lower”. Also, the growth of tumor result in the data set on HepG2 cells [4] is given as “significantly inhibited”.
Regarding `CCC(=O)Oc1cc(/C=C/C(=O)c2ccc(OC)c3c2OC(C)(C)C=C3)ccc1OC` [SKLBC-76, (E)-2-methoxy-5-(3-(5-methoxy-2,2-dimethyl-2H-chromen-8-yl)-3-oxoprop-1-en-1-yl)phenyl propionate], the IC50 was 164 nM in the data set with K562; 443 nM with A375; more than 10000 nM in the data set with LO2; 2150 nM in the data set on SMMC-7221; 475 nM in the data set on A549; 103 nM in the data set with HepG2. Moreover, the average tumor weight result with HepG2 cells [5] is “significantly lower”. Further, in the data set with HepG2 cells [5], the growth of tumor entry was “significantly inhibited”.
With `COc1ccc(/C=C/C(=O)c2ccc(OC)c3c2OC(C)(C)C=C3)cc1N` [SKLBC-83, (E)-3-(3-amino-4-methoxyphenyl)-1-(5-methoxy-2,2-dimethyl-2H-chromen-8-yl)prop-2-en-1-one], the IC50 was 246 nM in the data set with K562; 111 nM in the data set with A375; 8500 nM in the data set with LO2; 278 nM in the data set with SMMC-7221; 285 nM in the data set with A549; 42 nM in the data set with HepG2. The average tumor weight entry in the data set on C26 cells [6] and in the data set on C26 cells [7] was “significantly lower” in each case. Further, the growth of tumor entry in the data set on C26 cells [6] and in the data set with C26 cells [7] was “significantly inhibited” each time.
